Measurements reported in patent publication US9738630B2, “Inhibitors of lysine methyl transferase” (BRISTOL-MYERS SQUIBB COMPANY, priority 2013, dated 2017).

What follows are compounds tested against recombinant EZH2-641F complex (EZH2 Y641F/EED/SUZ12/RbAp48/AEBP2) (Homo sapiens (Human), UniProt Q15910, Y641F) (assay: EZH2 Histone Methyl Transferase Assay (scintillation proximity assay)). Conditions: 350 nM histone peptide substrate, 500 nM 3H-SAM, 3 hours at room temperature.
Assay type: biochemical
From the text: EZH2 Histone Methyl Transferase Assay
The effectiveness of compounds of the present invention as inhibitors of hitone methyl transferases can be readily tested by assays known to those skilled in the art. For example, in vitro histone methyl transferase assays may be conducted with a relevant purified histone methyl transferase and an appropriate synthetic substrate to determine the inhibitory activity of the compounds. […] Reaction products were captured by binding to strepavidin-conjugated imaging beads. Incorporation of radioactive methyl group into the histone peptide substrate was determined in Leadseeker (GE Healthcare) by means of scintiallation proximity assay. […] Compounds were dissolved at 10 mM in dimethylsulfoxide (DMSO) and evaluated at eleven concentrations. EC50 values were derived by non-linear regression analysis.

Sequence of recombinant EZH2-641F complex (EZH2 Y641F/EED/SUZ12/RbAp48/AEBP2) (Q15910 whole entry Y641F): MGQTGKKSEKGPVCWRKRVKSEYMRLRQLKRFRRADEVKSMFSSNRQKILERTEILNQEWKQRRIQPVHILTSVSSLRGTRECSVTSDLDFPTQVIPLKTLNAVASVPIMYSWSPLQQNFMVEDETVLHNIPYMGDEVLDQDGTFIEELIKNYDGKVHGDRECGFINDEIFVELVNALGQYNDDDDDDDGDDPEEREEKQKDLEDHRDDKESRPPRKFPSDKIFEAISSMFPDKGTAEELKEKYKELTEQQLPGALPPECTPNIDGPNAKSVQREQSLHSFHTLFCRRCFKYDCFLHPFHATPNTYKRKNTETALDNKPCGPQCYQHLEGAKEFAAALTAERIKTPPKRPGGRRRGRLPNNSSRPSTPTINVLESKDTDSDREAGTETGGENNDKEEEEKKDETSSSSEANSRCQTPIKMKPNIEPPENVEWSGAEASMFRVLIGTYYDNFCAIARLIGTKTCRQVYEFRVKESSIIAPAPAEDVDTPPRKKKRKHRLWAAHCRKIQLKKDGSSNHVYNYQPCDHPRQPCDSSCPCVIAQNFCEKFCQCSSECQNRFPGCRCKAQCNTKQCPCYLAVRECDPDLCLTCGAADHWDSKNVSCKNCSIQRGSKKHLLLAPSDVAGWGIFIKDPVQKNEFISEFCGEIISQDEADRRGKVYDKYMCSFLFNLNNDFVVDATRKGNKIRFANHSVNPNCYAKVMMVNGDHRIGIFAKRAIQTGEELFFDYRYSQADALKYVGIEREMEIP
Sequence of recombinant EZH2-641F complex (EZH2 Y641F/EED/SUZ12/RbAp48/AEBP2) (O75530 whole entry partner): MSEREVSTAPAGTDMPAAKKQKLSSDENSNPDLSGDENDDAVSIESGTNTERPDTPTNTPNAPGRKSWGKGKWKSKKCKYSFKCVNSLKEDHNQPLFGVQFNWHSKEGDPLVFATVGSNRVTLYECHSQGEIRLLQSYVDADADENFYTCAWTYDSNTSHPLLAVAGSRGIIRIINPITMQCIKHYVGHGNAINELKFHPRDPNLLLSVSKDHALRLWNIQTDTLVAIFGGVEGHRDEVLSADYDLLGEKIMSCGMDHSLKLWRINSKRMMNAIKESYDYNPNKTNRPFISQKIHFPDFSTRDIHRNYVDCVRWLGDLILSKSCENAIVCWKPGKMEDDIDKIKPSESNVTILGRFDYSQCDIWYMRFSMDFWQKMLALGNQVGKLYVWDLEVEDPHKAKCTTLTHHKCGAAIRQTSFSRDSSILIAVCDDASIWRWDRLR
Sequence of recombinant EZH2-641F complex (EZH2 Y641F/EED/SUZ12/RbAp48/AEBP2) (Q15022 whole entry partner): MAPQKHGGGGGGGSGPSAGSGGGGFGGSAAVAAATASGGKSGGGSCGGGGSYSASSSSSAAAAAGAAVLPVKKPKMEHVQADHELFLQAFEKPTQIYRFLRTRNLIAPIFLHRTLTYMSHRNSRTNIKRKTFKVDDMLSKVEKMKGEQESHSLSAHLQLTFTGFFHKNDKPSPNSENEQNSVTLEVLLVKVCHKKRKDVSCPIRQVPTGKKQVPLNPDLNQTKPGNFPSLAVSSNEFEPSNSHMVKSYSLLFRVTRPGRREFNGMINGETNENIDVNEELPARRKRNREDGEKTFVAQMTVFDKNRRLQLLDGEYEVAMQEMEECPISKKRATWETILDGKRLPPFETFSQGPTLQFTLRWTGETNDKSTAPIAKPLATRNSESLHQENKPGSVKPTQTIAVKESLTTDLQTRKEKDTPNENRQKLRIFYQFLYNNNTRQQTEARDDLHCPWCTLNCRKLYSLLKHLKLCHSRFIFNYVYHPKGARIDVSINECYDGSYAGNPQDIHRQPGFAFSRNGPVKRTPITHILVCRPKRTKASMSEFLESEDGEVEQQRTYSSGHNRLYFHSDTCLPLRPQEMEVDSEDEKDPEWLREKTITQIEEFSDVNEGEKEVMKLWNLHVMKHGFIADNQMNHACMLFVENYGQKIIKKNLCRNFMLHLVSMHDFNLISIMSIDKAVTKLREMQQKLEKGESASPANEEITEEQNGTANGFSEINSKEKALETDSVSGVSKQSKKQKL
Sequence of recombinant EZH2-641F complex (EZH2 Y641F/EED/SUZ12/RbAp48/AEBP2) (Q09028 whole entry partner): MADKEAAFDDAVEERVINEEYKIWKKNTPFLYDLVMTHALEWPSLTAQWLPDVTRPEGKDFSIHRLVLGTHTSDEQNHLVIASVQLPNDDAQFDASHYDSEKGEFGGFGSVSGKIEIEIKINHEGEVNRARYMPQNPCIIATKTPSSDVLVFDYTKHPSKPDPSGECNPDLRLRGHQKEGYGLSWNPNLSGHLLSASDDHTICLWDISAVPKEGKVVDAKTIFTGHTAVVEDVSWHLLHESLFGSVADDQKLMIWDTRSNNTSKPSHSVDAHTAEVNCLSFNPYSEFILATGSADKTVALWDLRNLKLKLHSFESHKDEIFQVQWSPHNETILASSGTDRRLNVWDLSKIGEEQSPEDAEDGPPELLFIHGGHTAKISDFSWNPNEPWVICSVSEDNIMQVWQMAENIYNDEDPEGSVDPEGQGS
Sequence of recombinant EZH2-641F complex (EZH2 Y641F/EED/SUZ12/RbAp48/AEBP2) (Q6ZN18 whole entry partner): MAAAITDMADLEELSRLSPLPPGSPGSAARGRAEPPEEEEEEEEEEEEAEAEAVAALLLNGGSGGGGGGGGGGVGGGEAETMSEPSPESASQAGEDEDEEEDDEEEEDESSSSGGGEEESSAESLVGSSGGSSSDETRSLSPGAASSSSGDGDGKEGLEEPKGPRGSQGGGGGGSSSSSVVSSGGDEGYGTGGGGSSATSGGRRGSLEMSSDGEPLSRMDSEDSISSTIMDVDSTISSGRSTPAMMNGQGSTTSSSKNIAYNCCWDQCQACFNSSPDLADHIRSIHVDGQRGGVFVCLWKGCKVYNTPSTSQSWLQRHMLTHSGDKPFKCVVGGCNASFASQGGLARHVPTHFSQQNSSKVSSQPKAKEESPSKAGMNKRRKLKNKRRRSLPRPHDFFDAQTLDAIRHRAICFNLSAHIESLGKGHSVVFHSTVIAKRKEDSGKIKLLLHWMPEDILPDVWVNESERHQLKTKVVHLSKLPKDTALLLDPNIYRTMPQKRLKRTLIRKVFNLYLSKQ

EC50 [µM] | Structure (SMILES)
≤ 0.5 | CCC(C)n1cc(C)c2c(C(=O)NCc3c(=O)[nH]c(C)c4ccccc34)cc(-c3ccc(N4CCNCC4)nc3)cc21 (stereo not shown) [Example 10, 1-(sec-Butyl)-3-methyl-N-((1-methyl-3-oxo-2,3-dihydroisoquinolin-4-yl)methyl)-6-(6-(piperazin-1-yl)pyridin-3-yl)-1H-indole-4-carboxamide]
≤ 5 | CCC(C)n1cc(C)c2c(C(=O)NCc3c(=O)[nH]c(C)c4ccccc34)cc(-c3ccc(N4CCN(C(=O)OC(C)(C)C)CC4)nc3)cc21 (stereo not shown) [Example 9, tert-Butyl 4-(5-(1-(sec-butyl)-3-methyl-4-(((1-methyl-3-oxo-2,3-dihydroisoquinolin-4-yl)methyl)carbamoyl)-1H-indol-6-yl)pyridin-2-yl)piperazine-1-carboxylate]
≤ 5 | CCN(c1cc(-c2ccc(CN3CCOCC3)cc2)cc(C(=O)NCC2C(=O)NC(C)c3cccc(F)c32)c1C)C1CCOCC1 (stereo not shown) [Example 5, 5-(Ethyl(tetrahydro-2H-pyran-4-yl)amino)-N-((5-fluoro-1-methyl-3-oxo-1,2,3,4-tetrahydroisoquinolin-4-yl)methyl)-4-methyl-4′-(morpholinomethyl)-[1,1′-biphenyl]-3-carboxamide]
≤ 5 | Cc1[nH]c(=O)c(CNC(=O)c2cc3c(c(-c4ccc(N5CCNCC5)nc4)c2)OC(C)(C)C3)c2ccccc12 [Example 17, 2,2-Dimethyl-N-((1-methyl-3-oxo-2,3-dihydroisoquinolin-4-yl)methyl)-7-(6-(piperazin-1-yl)pyridin-3-yl)-2,3-dihydrobenzofuran-5-carboxamide]
